Experimental findings from US9187441B2, “p53-Mdm2 antagonists” (University of Pittsburgh—Of the Commonwealth System of …, priority 2010, dated 2015) are described below.

Series [1] deals with T1, Mdm2 (Homo sapiens (Human), UniProt Q00987). Kind of series: NMR (AIDA) ligand binding to Mdm2. Particulars: Table 8, Formula II compounds, measured by NMR (AIDA). How it is done:
All NMR spectra were acquired at 298 K on a Bruker DRX 600 MHz spectrometer equipped with a cryoprobe. Typically, NMR samples contained 0.1-0.2 mM protein in 50 mM KH2PO4 and 50 mM Na2HPO4, pH 7.4, containing 150 mM NaCl and 5 mM β-Mercaptoethanol. Water suppression was carried out using the WATERGATE sequence. NMR data were processed using the Bruker program Xwin-NMR version 3.5. NMR ligand binding experiments were carried out in an analogous way to those previously described. See D'Silva L., et. al., J. Am. Chem. Soc. 2005, 127, 13220-13226 and Popowicz G. M., et. al., Cell Cycle. 2007, 6, 2386-2392. The maximum concentration of DMSO at the end of titration experiments was less than 1%. The pH was maintained constant during the entire titration. The 1H-15N-HSQC spectra were recorded using fast HSQC pulse sequence as described by Mori et. al., J. Magn. Reson. B 1995, 108, 94-98.
The binding constants (Ki values), of representative Formula II compounds was determined using fluorescence polarization or NMR spectroscopy and are illustrated in Table 8.

Series [2] has as its target T1, Mdm2. Kind of series: Fluorescence polarization (FP) competition binding assay with Mdm2. (In general: In fluorescence polarisation assays a small probe gives low polarisation when free and higher when bound to something large.)
Experimental: Fluorescence polarization (FP) assay was employed to measure the binding affinities of small molecules with Mdm2.
Protocol for Fluorescence Polarization (FP) Assay:
Fluorescent polarization experiments were performed as follows. […] The fluorescence intensities parallel (Intparallel) and perpendicular (Intperpedicular) to the plane of excitation were measured in parallel perpendicular black 384-well NBS assay plates (Corning) at room temperature (˜20° C.). […] All fluorescence polarization values were expressed in millipolarization units (mP). […] Competition binding assays were performed using the 10 nM fluorescent P4 peptide and 100 nM Mdm2. Binding constant and inhibition curves were fitted using the SigmaPlot (SPSS Science Software).
Series [3] can be described thus: Water (aqueous) solubility. The class given is physicochemical.
Where [4] appears, read: Table 8, Formula II compounds, measured by FP.
The mark [5] stands for this setting: read-out: Ki (inhibition constant), Table 1, compounds 8 (C-2 ethyl esters), FP assay, n.i. = no interaction.
Setting [6] is: Table 1, compounds 8 (C-2 ethyl esters), FP assay, n.i. = no interaction.

≈ marks a conversion by molar mass, not a printed value. Bounds are passed on as bounds.

T1 sequence (Q00987 whole entry): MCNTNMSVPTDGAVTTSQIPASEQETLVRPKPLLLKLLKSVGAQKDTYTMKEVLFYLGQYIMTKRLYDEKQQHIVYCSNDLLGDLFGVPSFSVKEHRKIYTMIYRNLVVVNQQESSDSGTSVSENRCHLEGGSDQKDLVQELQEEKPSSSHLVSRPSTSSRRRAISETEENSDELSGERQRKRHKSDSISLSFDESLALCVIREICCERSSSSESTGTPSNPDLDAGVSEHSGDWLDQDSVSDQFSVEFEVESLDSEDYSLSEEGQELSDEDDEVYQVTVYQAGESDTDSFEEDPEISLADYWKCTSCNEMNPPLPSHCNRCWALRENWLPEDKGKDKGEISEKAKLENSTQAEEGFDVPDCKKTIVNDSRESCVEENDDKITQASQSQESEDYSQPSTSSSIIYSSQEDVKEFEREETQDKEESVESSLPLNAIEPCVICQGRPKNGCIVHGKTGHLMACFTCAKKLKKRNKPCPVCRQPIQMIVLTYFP

The term Ki denotes a measure of affinity in units of concentration, obtained from inhibition or displacement. Consider `CCOC(=O)c1[nH]c2cc(Cl)ccc2c1C(NC(CC(C)C)C(=O)OC)C(=O)NCc1ccccc1` (stereo in doubt) [KK229, Ethyl 3-(2-(benzylamino)-1-(((R)-1-methoxy-4-methyl-1-oxopentan-2-yl)amino)-2-oxoethyl)-6-chloro-1H-indole-2-carboxylate], for which the inhibition constant (Ki) in series [1] stood at 1.7 µM. On to `CCOC(=O)c1[nH]c2cc(Cl)ccc2c1C(NC(CC(C)C)C(=O)NCCO)C(=O)NCc1ccccc1` (stereo in doubt) [KK259, Ethyl 3-(2-(benzylamino)-1-(((S)-1-((2-hydroxyethyl)amino)-4-methyl-1-oxopentan-2-yl)amino)-2-oxoethyl)-6-chloro-1H-indole-2-carboxylate], for which the Ki in series [2] (setting [4]) was found to be 9 µM.

With `CCOC(=O)c1[nH]c2cc(Cl)ccc2c1C(NC(CC(C)C)C(=O)NCCCN1CCOCC1)C(=O)NCc1ccccc1` (stereo in doubt) [KK261, Ethyl 3-(2-(benzylamino)-1-(((S)-4-methyl-1-((3-morpholinopropyl)amino)-1-oxopentan-2-yl)amino)-2-oxoethyl)-6-chloro-1H-indole-2-carboxylate], the affinity in series [2] (setting [4]) corresponds to a Ki of 11 µM.

On to `CC(C)(C)NC(=O)C(c1c(C(=O)O)[nH]c2cc(Cl)ccc12)N(C=O)Cc1cccc(F)c1` (stereo not shown) [Compound 7C, 3-(2-(tert-butylamino)-1-(N-(3-fluorobenzyl)formamido)-2-oxoethyl)-6-chloro-1H-indole-2-carboxylic acid], for which the affinity in series [2], expressed as Ki, was 0.81 µM. The same measure, in the same setting: as for `CC(C)(C)NC(=O)C(c1c(C(=O)O)[nH]c2cc(Cl)ccc12)N(C=O)Cc1ccccc1F` (stereo not shown) [Compound 7D, 3-(2-(tert-butylamino)-1-(N-(2-fluorobenzyl)formamido)-2-oxoethyl)-6-chloro-1H-indole-2-carboxylic acid], the figure is 1.7 µM; as for `CC(C)(C)NC(=O)C(c1c(C(=O)O)[nH]c2cc(Cl)ccc12)N(C=O)Cc1cc(F)ccc1F` (stereo not shown) [Compound 7H, 3-(2-(tert-butylamino)-1-(N-(2,5-difluorobenzyl)formamido)-2-oxoethyl)-6-chloro-1H-indole-2-carboxylic acid], 2.5 µM. For orientation: solubility means the dissolved amount per volume that the medium holds. Lower therefore signals a poorly soluble substance. `CC(C)(C)NC(=O)C(c1c(C(=O)O)[nH]c2cc(Cl)ccc12)N(C=O)Cc1cc(F)c(F)c(F)c1` (stereo not shown) [Compound 7M, 3-(2-(tert-butylamino)-2-oxo-1-(N-(3,4,5-trifluorobenzyl)formamido)ethyl)-6-chloro-1H-indole-2-carboxylic acid]: in series [3] (aqueous medium), the solubility amounted to 850 µg/mL (≈ 1710 µM). For `CCOC(=O)c1[nH]c2cc(Cl)ccc2c1C(C(=O)NCc1ccccc1)N(CC(C)C)C(C)=O` (stereo not shown) [Compound 8c, Ethyl 3-(2-(benzylamino)-1-(N-isobutylacetamido)-2-oxoethyl)-6-chloro-1H-indole-2-carboxylate], the Ki in series [2] (setting [5]) turned out to be 4 µM.

Consider `CCOC(=O)c1[nH]c2cc(Cl)ccc2c1C(C(=O)NCc1ccccc1)N(Cc1ccccc1)C(C)=O` (stereo not shown) [Compound 8d, Ethyl 3-(1-(N-benzylacetamido)-2-(benzylamino)-2-oxoethyl)-6-chloro-1H-indole-2-carboxylate], for which the Ki in series [2] (read-out: Ki (inhibition constant)) turned out to be 6 µM. Consider `CCOC(=O)c1[nH]c2cc(Cl)ccc2c1C(C(=O)NC1CCCCC1)N(Cc1ccc(Cl)c(Cl)c1)C(C)=O` (stereo not shown) [Compound 8g, Ethyl 6-chloro-3-(2-(cyclohexylamino)-1-(N-(3,4-dichlorobenzyl)acetamido)-2-oxoethyl)-1H-indole-2-carboxylate], for which the inhibition constant (Ki) in series [2] (setting [5]) turned out to be 9 µM. The same measure, in the same setting: for `CCOC(=O)c1[nH]c2cc(Cl)ccc2c1C(C(=O)NC1CCCCC1)N(C=O)Cc1ccc(Cl)cc1` (stereo not shown) [Compound 8j, Ethyl 6-chloro-3-(1-(N-(4-chlorobenzyl)formamido)-2-(cyclohexylamino)-2-oxoethyl)-1H-indole-2-carboxylate] the value was 50 µM; for `CCOC(=O)c1[nH]c2cc(Cl)ccc2c1C(C(=O)NC1CCCCC1)N(C=O)Cc1ccc(F)cc1` (stereo not shown) [Compound 8k, Ethyl 6-chloro-3-(2-(cyclohexylamino)-1-(N-(4-fluorobenzyl)formamido)-2-oxoethyl)-1H-indole-2-carboxylate], 30 µM. As for `CCOC(=O)c1[nH]c2cc(Cl)ccc2c1C(C(=O)NC(C)(C)C)N(C=O)Cc1ccc(-c2ccccc2)cc1` (stereo not shown) [Compound 8s, Ethyl 3-(1-(N-(biphenyl-4-ylmethyl)formamido)-2-(tert-butylamino)-2-oxoethyl)-6-chloro-1H-indole-2-carboxylate], the “Ki (inhibition constant)” value in series [2] (setting [6]) is on record as “n.i”. The same measure, in the same setting: for `CCOC(=O)c1[nH]c2cc(Cl)ccc2c1C(C(=O)NC(C)(C)C)N(C=O)Cc1ccc(Oc2ccccc2)cc1` (stereo not shown) [Compound 8t, Ethyl 3-(2-(tert-butylamino)-2-oxo-1-(N-(4-phenoxybenzyl)formamido)ethyl)-6-chloro-1H-indole-2-carboxylate] the value was “n.i”. With `CC(C)(C)NC(=O)C(c1c(C(=O)O)[nH]c2cc(Cl)ccc12)N(C=O)Cc1ccc(-c2ccccc2)cc1` (stereo not shown) [Compound 9s, 3-(1-(N-(biphenyl-4-ylmethyl)formamido)-2-(tert-butylamino)-2-oxoethyl)-6-chloro-1H-indole-2-carboxylic acid], in series [2] (read-out: Ki (inhibition constant), Table 2, compounds 9 (free C-2 carboxylic acids), FP assay), the Ki is 2.5 µM. `CCOC(=O)c1[nH]c2cc(Cl)ccc2c1C(N[C@H](C(=O)OC)C(C)C)C(=O)NCc1ccccc1` (stereo partly drawn) [KK228, Ethyl 3-(2-(benzylamino)-1-(((S)-1-methoxy-3-methyl-1-oxobutan-2-yl)amino)-2-oxoethyl)-6-chloro-1H-indole-2-carboxylate] came in with a Ki in series [2] (setting [4]) below 1 µM. Regarding `CCOC(=O)c1[nH]c2cc(Cl)ccc2c1C(N[C@@H](CC(C)C)C(=O)NCCN1CCOCC1)C(=O)NCc1ccccc1` (stereo partly drawn) [KK242, Ethyl 3-(2-(benzylamino)-1-(((S)-4-methyl-1-((2-morpholinoethyl)amino)-1-oxopentan-2-yl)amino)-2-oxoethyl)-6-chloro-1H-indole-2-carboxylate], in series [2] (setting [4]), the affinity corresponds to a Ki of 10 µM. For `CCOC(=O)c1[nH]c2cc(Cl)ccc2c1C(NC(CC(C)C)C(=O)O)C(=O)NCc1ccccc1` (stereo not shown) [KK272, 2-((2-(benzylamino)-1-(6-chloro-2-(ethoxycarbonyl)-1H-indol-3-yl)-2-oxoethyl)amino)-4-methylpentanoic acid], the Ki in series [2] (setting [4]) worked out at 1.4 µM. Compound `CC(C)CC(NC(C(=O)NCc1ccccc1)c1c(C(=O)O)[nH]c2cc(Cl)ccc12)C(=O)NCCN1CCOCC1` (stereo not shown) [KK273, 3-(2-(benzylamino)-1-(4-methyl-1-(2-morpholinoethylamino)-1-oxopentan-2-ylamino)-2-oxoethyl)-6-chloro-1H-indole-2-carboxylic acid] yielded a Ki in series [1] of 0.4 µM. In series [2] (setting [4]), `CC(C)CC(NC(C(=O)NCc1ccccc1)c1c(C(=O)O)[nH]c2cc(Cl)ccc12)C(=O)NCCO` (stereo not shown) [KK278, 3-(2-(benzylamino)-1-((1-((2-hydroxyethyl)amino)-4-methyl-1-oxopentan-2-yl)amino)-2-oxoethyl)-6-chloro-1H-indole-2-carboxylic acid] had a Ki of 9 µM. The same measure, in the same setting: as for `CC(C)CC(NC(C(=O)NCc1ccccc1)c1c(C(=O)O)[nH]c2cc(Cl)ccc12)C(=O)NCCCN1CCOCC1` (stereo not shown) [KK279, 3-(2-(benzylamino)-1-((4-methyl-1-((3-morpholinopropyl)amino)-1-oxopentan-2-yl)amino)-2-oxoethyl)-6-chloro-1H-indole-2-carboxylic acid], the figure is 7 µM. One may read the aqueous solubility as the dissolved amount per volume that the medium holds. Lower therefore signals little dissolved substance. `COc1ccc(C2=N[C@@H](c3ccc(Cl)cc3)[C@@H](c3ccc(Cl)cc3)N2C(=O)N2CCNC(=O)C2)c(OC(C)C)c1` [Nutlin-3a, reference compound] yielded an aqueous solubility in series [3] of 100 µg/mL (≈ 172 µM).
